Assay results taken from patent US9399653B2, “Methods and systems for preparing irreversible inhibitors of protein tyrosine phosphatases” (The Governors of the University of Alberta, priority 2010, dated 2016).
Where “and” joins values, the source holds several entries; their conditions need not be identical. Equal entries are not always repeated.

Tests used:
[1] = molecular target: T1, human CD45-cytoplasmic domain (Homo sapiens, UniProt P08575); test: Phosphatase enzyme inhibition, CD45, fluorogenic substrate DiFMUP; assay type: biochemical; settings: for inhibition of CD45 (in words): DiFMUP substrate
T1 construct: human CD45-cytoplasmic domain (Enzo Life Science); purchased Enzo Life Science
T1 sequence (P08575 599-1306 limits assumed): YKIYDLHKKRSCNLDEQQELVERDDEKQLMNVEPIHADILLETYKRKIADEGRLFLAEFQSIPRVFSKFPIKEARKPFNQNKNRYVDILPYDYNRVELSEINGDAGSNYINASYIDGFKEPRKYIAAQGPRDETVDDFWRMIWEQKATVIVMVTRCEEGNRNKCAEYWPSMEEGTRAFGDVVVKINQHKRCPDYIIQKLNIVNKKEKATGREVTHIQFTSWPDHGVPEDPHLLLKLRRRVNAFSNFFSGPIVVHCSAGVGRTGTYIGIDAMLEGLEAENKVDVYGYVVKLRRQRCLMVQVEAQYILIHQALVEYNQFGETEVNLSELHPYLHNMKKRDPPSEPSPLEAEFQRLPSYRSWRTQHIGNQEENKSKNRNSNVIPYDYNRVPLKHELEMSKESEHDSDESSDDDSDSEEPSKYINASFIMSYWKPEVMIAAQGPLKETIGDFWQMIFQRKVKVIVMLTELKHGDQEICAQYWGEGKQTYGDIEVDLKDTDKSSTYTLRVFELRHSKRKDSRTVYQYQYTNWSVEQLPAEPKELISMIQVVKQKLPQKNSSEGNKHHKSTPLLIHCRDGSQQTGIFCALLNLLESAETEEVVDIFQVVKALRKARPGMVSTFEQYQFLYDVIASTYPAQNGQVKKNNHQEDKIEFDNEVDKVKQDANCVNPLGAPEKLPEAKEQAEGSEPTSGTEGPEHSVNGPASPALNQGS
Method: Enzyme assays were conducted using human CD45-cytoplasmic domain (Enzo Life Science; diluted to 4 mU/μL in 50 mM HEPES, pH 7.2, 1 mM EDTA, and 0.1% nonidet P-40) (FIG. 6-8), or bovine alkaline phosphatase (New England Bio Labs; diluted to 4 mU/μL in 100 mM NaCl, 50 mM tris-HCl, 10 mM MgCl2 1 mM dithiothreitol, pH 7.9) (FIG. 2-5). Enzyme activity was detected with a fluorogenic substrate (6,8-difluoro-4-methylumbelliferyl phosphate; DiFMUP) (Invitrogen). Assays were performed in black 96-well plates and read in a Spectra Max M2 plate reader (Molecular Devices). For CD45 assays, substrate concentration was between 1 μM to 50 μM, for alkaline phosphatase substrate concentration was between 10 nM to 10 μM. Stock solutions of inhibitors (100 mM of compound 7 in deionized water; and 10 mM of compound 17 in 50% deionized water and 50% DMSO) were prepared and stored at −20° C. Final solutions in microplate wells contained a total volume of 100 μL consisting of 2 μL of diluted enzyme, inhibitor, and DiFMUP substrate diluted to 100 μL in the appropriate buffer. All wells were incubated for 10 min at 37° C. in the plate reader prior to the addition of DiFMUP. After incubation, substrate was added and the plate was read at an excitation maximum of 358 nm and an emission maximum of 450 nm every 30 seconds for 125 min (CD45) or 65 min (alkaline phosphatase).
The Km for DiFMUP with each enzyme was first determined, and the experiment was then repeated in the presence of the inhibitor at a concentration close to an initially estimated K, (TABLE 1). […] Previous reports of PTP inhibition using BBP analogs observed irreversible inhibition of the enzyme.(22) Evaluation of the kinetic data described above using reciprocal plots (FIG. 9-12) was not consistent with pure competitive inhibition of CD45, but this analysis is not conclusive on its own.
(§1) The Kitz-Wilson analysis estimated the rate of irreversible inhibition (k3) of CD45 at 0.05 min^−1 for both compounds. To provide additional support for the expected mechanism of inhibition, we measured CD45 activity for an enzyme sample which was pre-incubated with the inhibitor and compared it to an enzyme sample that was only incubated with the inhibitor for a short period.

CD45 = molecular target: T2, CD45 (Homo sapiens, UniProt P08575); test: Time-dependent inhibition of CD45 (pre-incubation with inhibitor); assay type: biochemical; settings: compound at 25 μM, enzyme incubated 13 h (FIG. 13)
T2 construct: Enzyme assays were conducted using human CD45-cytoplasmic domain (Enzo Life Science); purchased Enzo Life Science
T2 sequence (P08575 599-1306 limits assumed): T1 sequence (P08575 599-1306 limits assumed)
Method: FIG. 13 is a plot of time-dependent inhibition of CD45 enzyme activity in the presence of compound 1 at a concentration of 25 μM. The enzyme was incubated for 13 h, either alone or in the presence of compound 1.
Time-Dependent Inhibition of CD45 by Compound 1
as §1

Compound	inhibition of CD45 (in words) [1]	KI ([1]; Kitz-Wilson analysis)	CD45 activity after pre-incubation with inhibitor (CD45)	Ki ([1]; Kitz-Wilson analysis) [µM]	k3, rate of enzyme inactivation ([1]; Kitz-Wilson analysis)	potency relative to BrPmp alone ([1]; from Kitz-Wilson KI values (Example 8))	potency relative to BrPmp alone ([1]; initial kinetic data (Example 7))
O=P(O)(O)C(Br)c1ccccc1 (centres unmarked) [compound 7, [bromo(phenyl)methyl]phosphonic acid, reference compound]	failure to alter the rate of reaction	did not give a saturating curve					
L-BrPmp-OH [compound 1]			at long incubation times completely inactivated the enzyme				
CC(C)C[C@H](NC(=O)[C@H](Cc1ccc(C(Br)P(=O)(O)O)cc1)NC(=O)[C@@H](N)CC(=O)O)C(=O)O (some centres unmarked) [compound 17, Asp-BrPmp-Leu]	significant inhibition of the enzyme at low micromolar concentrations			16 ± 4	0.05 min⁻¹ and 0.048 ± 0.003 min⁻¹	approximately 4 fold	approximately 7 fold
